Reference: PubChem BioAssay (NCI)
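Briefly, cells in 96-well plates were exposed to five compound concentrations for 48 h, and endpoints were estimated by linear interpolation. At the GI50, growth is halved. TGI: concentration producing complete growth inhibition.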

Columns and labels:
Assay in all cases: NCI tumour cell line growth inhibition, 48 h
NCI-H522 lung = tested on: NCI-H522 lung
CAKI-1 renal = tested on: CAKI-1 renal
UO-31 renal = tested on: UO-31 renal
UACC-257 melanoma = tested on: UACC-257 melanoma
OVCAR-5 ovarian = tested on: OVCAR-5 ovarian
SK-MEL-5 melanoma = tested on: SK-MEL-5 melanoma
HCT-15 colon = tested on: HCT-15 colon
RPMI-8226 leukemia = tested on: RPMI-8226 leukemia
DU-145 prostate = tested on: DU-145 prostate
K-562 leukemia = tested on: K-562 leukemia
OVCAR-4 ovarian = tested on: OVCAR-4 ovarian
BT-549 breast = tested on: BT-549 breast
MDA-MB-231 breast = tested on: MDA-MB-231 breast
COLO 205 colon = tested on: COLO 205 colon
OVCAR-3 ovarian = tested on: OVCAR-3 ovarian
SNB-75 CNS = tested on: SNB-75 CNS
UACC-62 melanoma = tested on: UACC-62 melanoma
HOP-92 NSCLC = tested on: HOP-92 NSCLC
A549 NSCLC = tested on: A549 NSCLC
NCI-H460 lung = tested on: NCI-H460 lung
HS 578T breast = tested on: HS 578T breast
HL-60(TB) leukemia = tested on: HL-60(TB) leukemia
MCF7 breast = tested on: MCF7 breast
SN12C renal = tested on: SN12C renal
SF-268 CNS = tested on: SF-268 CNS
MDA-MB-435 = tested on: MDA-MB-435
SK-MEL-2 melanoma = tested on: SK-MEL-2 melanoma
NCI-H23 lung = tested on: NCI-H23 lung
HOP-62 NSCLC = tested on: HOP-62 NSCLC

Which GI50 (NCI-H522 lung) does the source give for `C=C1C(=O)O[C@H]2[C@H]1CC/C(Cn1cc(-c3ccccc3)nn1)=C\CC[C@@]1(C)O[C@@H]21` here?
The GI50 was 0.811 µM.

And the TGI (NCI-H522 lung)?
Its TGI is 1.66 µM.

And the GI50 (CAKI-1 renal)?
The GI50 was 1.28 µM.

And the TGI (CAKI-1 renal)?
Its TGI is 4.83 µM.

And the GI50 (UO-31 renal)?
The GI50 was 0.87 µM.

What about the TGI (UO-31 renal) of the same compound?
Its TGI is 1.96 µM.

And the GI50 (UACC-257 melanoma)?
Its GI50 is 3.78 µM.

And the TGI (UACC-257 melanoma)?
The TGI was 10.5 µM.

What about the GI50 (OVCAR-5 ovarian) of the same compound?
Its GI50 is 5.7 µM.

And the TGI (OVCAR-5 ovarian)?
Its TGI is 13.3 µM.

What about the GI50 (SK-MEL-5 melanoma) of the same compound?
Its GI50 is 7.32 µM.

And the TGI (SK-MEL-5 melanoma)?
Its TGI is 13.9 µM.

What about the GI50 (HCT-15 colon) of the same compound?
Its GI50 is 0.769 µM.

What about the TGI (HCT-15 colon) of the same compound?
The TGI was 1.68 µM.

What about the GI50 (RPMI-8226 leukemia) of the same compound?
The GI50 was 1.71 µM.

And the TGI (RPMI-8226 leukemia)?
The TGI was 11.1 µM.

And the GI50 (DU-145 prostate)?
The GI50 was 2.19 µM.

And the TGI (DU-145 prostate)?
The TGI was 7.92 µM.

And the GI50 (K-562 leukemia)?
Its GI50 is 1.76 µM.

And the TGI (K-562 leukemia)?
The TGI was 8.49 µM.

What about the GI50 (OVCAR-4 ovarian) of the same compound?
The GI50 was 3.22 µM.

And the TGI (OVCAR-4 ovarian)?
Its TGI is 12.1 µM.

What about the GI50 (BT-549 breast) of the same compound?
The GI50 was 2.65 µM.

And the TGI (BT-549 breast)?
Its TGI is 8.97 µM.

What about the GI50 (MDA-MB-231 breast) of the same compound?
Its GI50 is 2 µM.

And the TGI (MDA-MB-231 breast)?
Its TGI is 7.89 µM.

And the GI50 (COLO 205 colon)?
The GI50 was 1.08 µM.

And the TGI (COLO 205 colon)?
The TGI was 2.36 µM.

What about the GI50 (OVCAR-3 ovarian) of the same compound?
Its GI50 is 1.4 µM.

What about the TGI (OVCAR-3 ovarian) of the same compound?
Its TGI is 4.38 µM.

What about the GI50 (SNB-75 CNS) of the same compound?
The GI50 was 6.21 µM.

And the TGI (SNB-75 CNS)?
Its TGI is 13 µM.

And the GI50 (UACC-62 melanoma)?
Its GI50 is 1.87 µM.

What about the TGI (UACC-62 melanoma) of the same compound?
The TGI was 8.22 µM.

What about the GI50 (HOP-92 NSCLC) of the same compound?
Its GI50 is 1.42 µM.

And the TGI (HOP-92 NSCLC)?
The TGI was 3.6 µM.

What about the GI50 (A549 NSCLC) of the same compound?
Its GI50 is 5.88 µM.

And the TGI (A549 NSCLC)?
Its TGI is 13.8 µM.

What about the GI50 (NCI-H460 lung) of the same compound?
Its GI50 is 7.74 µM.

What about the TGI (NCI-H460 lung) of the same compound?
Its TGI is 23.3 µM.

And the GI50 (HS 578T breast)?
The GI50 was 9.78 µM.

And the TGI (HS 578T breast)?
The TGI was 29.6 µM.

And the GI50 (HL-60(TB) leukemia)?
Its GI50 is 1.49 µM.

And the TGI (HL-60(TB) leukemia)?
The TGI was 5.64 µM.

What about the GI50 (MCF7 breast) of the same compound?
The GI50 was 1.08 µM.

And the TGI (MCF7 breast)?
Its TGI is 3.32 µM.

What about the GI50 (SN12C renal) of the same compound?
The GI50 was 4.5 µM.

What about the TGI (SN12C renal) of the same compound?
Its TGI is 11.5 µM.

What about the GI50 (SF-268 CNS) of the same compound?
Its GI50 is 5.63 µM.

And the TGI (SF-268 CNS)?
Its TGI is 13.4 µM.

And the GI50 (MDA-MB-435)?
Its GI50 is 2.37 µM.

What about the TGI (MDA-MB-435) of the same compound?
The TGI was 9.18 µM.

What about the GI50 (SK-MEL-2 melanoma) of the same compound?
The GI50 was 5.5 µM.

And the TGI (SK-MEL-2 melanoma)?
Its TGI is 12.5 µM.

And the GI50 (NCI-H23 lung)?
The GI50 was 5.38 µM.

And the TGI (NCI-H23 lung)?
The TGI was 12.4 µM.

And the GI50 (HOP-62 NSCLC)?
Its GI50 is 7.41 µM.

And the TGI (HOP-62 NSCLC)?
Its TGI is 15.1 µM.
